“And” between values parts separate entries of the source, which are not always exact repeats. Identical values can stand only once.
B1: PEG-ASNase: asparaginase conjugated with polyethylene glycol (PEG); sold under the name ONCASPAR by Rhône-Poulenc Rorer (conjugate, UniProt P00805 23-348, looked up)
L-asparaginase 2: LPNITILATGGTIAGGGDSATKSNYTVGKVGVENLVNAVPQLKDIANVKGEQVVNIGSQDMNDNVWLTLAKKINTDCDKTDGFVITHGTDTMEETAYFLDLTVKCDKPVVMVGAMRPSTSMSADGPFNLYNAVVTAADKASANRGVLVVMNDTVLDGRDVTKTNTTDVATFKSVNYGPLGYIHNGKIDYQRTPARKHTSDTPFDVSKLNELPKVGIVYNYANASDLPAKALVDAGYDGIVSAGVGNGNLYKSVFDTLATAAKTGTAVVRSSRVPTGATTQDAEVDDAKYGFVASGTLNPQKARVLLQLALTQTKDPQQIQQIFNQY
modifications: PEG conjugate (pegaspargase)
notes: asparaginase conjugated with polyethylene glycol (PEG); sold under the name ONCASPAR by Rhône-Poulenc Rorer

Columns and labels:
Type in all cases: cell-based
[1] = test system: HIV-RNA in HIV-1 infected CEM/0 T-cell pellets; test: HIV-1 quantitative RNA assay (HIV-1 Monitor) in CEM/0 T-cell pellets; details: for mean, X3: Table 7; for N*: Table 7, per specimen, day 7, PEG 0.400 IU/ml, SAQ 25 uM, AZT 1 uM, MISID 0.685 uM, combinations PEG 0.233 IU/ml + SAQ 14.52 uM; for % control: Table 7 and text of Experiment 9; for Log 10 N: Table 2, per flask
Description: This experiment is carried out using a similar procedure, and the same concentrations of materials as in Experiment 1, however the exposure of HIV-RNA in T-cell pellets to a combination of PEG-ASNase and Saquinavir is measured. […] It should be noted that “PEG” in Table 2 represents PEG-ASNase.
The cell line used for these studies is CEM/0, a human T-cell leukemic cell line. PEG-ASNase (ONCASPAR) is provided by Rhone-Poulenc Rorer. Saquinavin is commercially available. AZT is purchased from Sigma. MISID, a ribonucleotide reductase inhibitor, is synthesized as indicated in Nandy P, Lien E J, Avramis V I, Med. Chem. Res. 1995, 5:664-679. RPMI-1640 media (Irvine Scientific, Irvine, Calif.), is enriched with 10% Fetal Calf Serum (Gemini Biosource, Calabasas, Calif.), 5% 1M Hepes Buffer solution and 5% Non-essential amino acids (Irvine Scientific, Irvine, Calif.). The drug concentrations used are as follows:
Briefly, 3×10^6 cells/ml are stimulated with PHA+ media for 48 hours at 37° C. with 5% CO2. Also, the same number of cells are incubated in PHA free media for 48 hours to serve as the negative control. At this point the cells are inoculated with the HIV-1 virus as per standard protocol. Note that in this experiment, the HIV containing supernatant from the PHA-stimulated healthy human peripheral mononuclear cells (PBMC) is not removed from the PHA-stimulated CEM/0 cell culture. […] These virus particles are released by already infected T-cells and/or lymph nodes of patients.
(§1) The experimental drugs are added to the cells in the appropriate concentrations at the same time as viral inoculation or 90 minutes after the viral incubation, a time sufficient for the T-cells to be infected and start producing new HIV-1 virus particles. The control cells are resuspended in drug-free media for the duration of the exposure which lasted seven days. Aliquots of media from the control flasks only are obtained on day 5 post Rx. At day seven, three 1 ml each, aliquots of media are removed from the flasks and stored under liquid nitrogen. In addition, the remaining cells are split into three and then pelleted and stored at −80° C.
The samples produced from this experiment are itemized. The cell pellets of the cellular cultures (see Experiment 7) from the 90 minute viral incubation flasks are assayed for HIV-RNA quantitative assay using a kit for the assay, non-radioactive. The standard curve is determined and the HIV-RNA levels for the experimental samples are calculated and reported previously.

[2] = test system: HIV-RT in supernatants of HIV-1 infected CEM/0 T-cells; test: HIV-RT ELISA in supernatants of HIV-1 infected CEM/0 T-cells; details: for inhibition of HIV-RT in supernatants: Experiment 8 text, day 7; for HIV-RT (negative values set to 0): Table 6, per specimen
Description: (§2) The following is a general procedure for the HIV-reverse transcriptase assay:
Materials and Methods: The cell line used for this experiment is CEM/0, a human T-cell leukemic cell line. PEG-ASNase (ONCASPAR) is provided by Rhone-Poulenc Rorer. Saquinavin (SQ) is commercially available. AZT is purchased from Sigma. […] The drug concentrations used are as follows:
Briefly, 3×10^6 cells/ml are stimulated with PHA+ media for 48 hours at 37° C. with 5% CO2. Also, the same number of cells are incubated in PHA free media for 48 hours to serve as the negative control. At this point the cells are inoculated with the HIV-1 virus as per standard protocol. Note that in this experiment, the HIV containing supernatant from the […] healthy human peripheral mononuclear cells (PBMC) is not removed from the PHA-stimulated CEM/0 cell culture. […] These virus particles are released by already infected T-cells and/or lymph nodes of patients.
as §1

[3] = test system: HIV-RT levels of HIV-1 infected CEM/0 cell pellets; test: HIV-RT ELISA (Reverse Transcriptase Assay, non-radioactive) in cell pellets of HIV-1 infected CEM/0 T-cells; set-up: % of control (of RANGE) / % of control (of MEAN): concentration or dose not given beside the values; details: for MEAN (HIV-RT): Table 5, three wells; for % of control (of RANGE): * single point determination; for MEAN X3 (HIV-RT): Table 9
Source text: as §2
The cell line used for these studies is CCRF/CEM/O, a human T-leukemic cell line. PEG-ASNase (ONCASPAR) is provided by Rhone-Poulenc Rorer. Saquinavir is commercially available. RPMI-1640 media (Irvine Scientific, Irvine, Calif.) is enriched with 10% Fetal Calf Serum (Gemini Biosource, Calabasas, Calif.), 5% 1M Hepes Buffer solution and 5% Non-essential amino acids (Irvine Scientific, Irvine, Calif.). The drug concentrations used are as follows:
Briefly, 2×10^6 cells/ml are stimulated with PHA+ media for 48 hours at 37° C. with 5% CO2. Also, the same number of cells are incubated in PHA(phytohemagglutinin) free media for 48 hours to serve as the negative control. At this point the cells are inoculated with the HIV-1 virus as per standard protocol. PEG-ASNase and/or Saquinavir are added to the cells in the appropriate concentrations (see above). The control cells are resuspended in drug-free media for the duration of the exposure which lasted seven days. At day five, two 1 ml aliquots of media are removed from the flasks and stored under liquid nitrogen. At day seven, two more 1 ml aliquots of media are removed from the flasks and stored under liquid nitrogen. In addition, the remaining cells are pelleted and stored at −80° C.
The samples produced from this experiment are itemized and then assayed for HIV-RT using the Reverse Transcriptase Assay, non-radioactive (Boehringer Mannheim). The standard curve is determined and the HIV-RT levels for the experimental samples are calculated.
This experiment is carried out using a similar procedure, and the same concentrations of materials as in Experiment 7, however the exposure of the HIV virus in T-cell pellets to PEG-ASNase and Saquinavir alone, and in combination is measured. It should be noted that “PEG” in Table 2a represents PEG-ASNase. […]

[4] = Experiment 7, monotherapy at IC50 concentrations or combination
[5] = Experiment 10 (3TC) text, cell pellets
[6] = Table 9, per well, listed as SAQ
[7] = Table 2a, per flask, listed as PEG
[8] = Table 9, per well, listed as PEG

Molecule	mean, X3 [1] [copies/cell pellet]	% control [1] [%]	inhibition of HIV-RT in supernatants [2]	HIV-RT (negative values set to 0) [2] [pg/well]	% of control (of MEAN) ([3]; Table 5) [%]	MEAN (HIV-RT) [3] [pg/well]	% of control (of RANGE) ([3]; Table 5) [%]	MEAN X3 (HIV-RT) [3] [ng/well]	inhibition of HIV-RT [3, 4] [%]	inhibition of HIV-RT [3, 5]	group mean (X2/X3) +/- S.D. ([3]; Table 2a)	also measured
Cc1cn([C@H]2C[C@H](N=[N+]=[N-])[C@@H](CO)O2)c(=O)[nH]c1=O [AZT, zidovudine]	102473	48	Great inhibition	0	0	0	0	0	–	–	–	N* [1]: 107269 copies/cell pellet and 97933 copies/cell pellet and 102217 copies/cell pellet; inhibition of HIV-RT ([3]; Experiment 7, cell pellets): most dramatic inhibition; HIV-RT ([3]; Table 5, per well, negative values set to 0): 0 pg/well; HIV-RT (negative values set to 0) ([3]; Table 9, per well): 0 ng/well
CC(C)(C)NC(=O)[C@@H]1C[C@@H]2CCCC[C@@H]2CN1C[C@@H](O)[C@H](Cc1ccccc1)NC(=O)[C@H](CC(N)=O)NC(=O)c1ccc2ccccc2n1 [Saquinavir]	125628	59	Great inhibition	0	12.7	0.016	12.7	0.022	83	some inhibition	X2 = 31.10 +/− 4.67 pg/well, % CV = 15.01%	inhibition of HIV-1 RNA production in comparison with the control ([1]; Experiment 5 text): approximately 36%; Log 10 N ([1]; listed as SAQ): 5.06 and 5.09; N* ([1]; listed as SAQ): 138583 copies/cell pellet and 109522 copies/cell pellet and 128780 copies/cell pellet; inhibition of HIV-RT in comparison with the control ([3]; Experiment 5a text, combination at synergistically reduced concentrations): approximately 15%; HIV-RT [3, 6]: 0.021 ng/well and 0.023 ng/well; HIV-RT (negative values set to 0) [3, 6]: 0.021 ng/well and 0.023 ng/well
B1	173448	81	–	0	46.03	0.058	67.46	0.159	54	some inhibition	X3 = 68.43 +/− 11.26 pg/well, % CV = 16.45%	Log 10 N ([1]; listed as PEG): 5.26 and 5.42; N* ([1]; listed as PEG): 183977 copies/cell pellet and 156304 copies/cell pellet and 180062 copies/cell pellet; effect on HIV-RNA in cell pellets ([1]; text of Experiments 5, 6 and 9): no apparent effect; inhibition of intracellular HIV-RT as compared to untreated control ([3]; Example 1, day 7 pellets, PEG-ASNase 0.4 IU/ml, Saquinavir 25 μM, combination 0.233 IU/ml + 14.5 μM): about 30%; effect in inhibiting HIV-RT ([3]; Experiment 5a, day 7): moderate effect; % cont. [3, 7]: 79.9% and 68.0% and 57.4%; HIV-RT [3, 7]: 0.330 pg/well and 0.281 pg/well and 0.237 pg/well; RANGE (HIV-RT, low or zero wells left out) ([3]; Table 5): 0.085 pg/well; HIV-RT [3, 8]: 0.201 ng/well and 0.142 ng/well and 0.133 ng/well; HIV-RT (negative values set to 0) [3, 8]: 0.201 ng/well and 0.142 ng/well and 0.133 ng/well

Source: patent US6689762B1, “Composition and methods for treatment of HIV infection” (Enzon Pharmaceuticals, Inc., priority 1998, dated 2004)
